Laboratory results published in patent publication US20020187484A1, “Molecular break lights probes for detecting nucleotide cleavage” (priority 2000, published 2002).
Marks after values point to notes of the source that are not given here.

How the values were obtained:
Format in all cases: biochemical
break light A = test: Molecular break light assay: cleavage of break light A by enediynes and Fe^+2-dependent agents
Protocol: Samples were analyzed with a FluoroMax-2 spectrofluorometer equipped with DataMax for Windows (Instruments S. A., Inc.; Edison, N.J.) and the temperature controlled (30° C., unless otherwise noted) by a Haake Circulator DC10. All samples were filtered prior to analysis and analyzed via a timebase scan (λex=485 nm, λEm=517 nm) in a Suprasil quartz cuvette (10 mm path) fitted with a magnetic stirring bar in a total volume of 2 mL. […] Total cleavage of the labeled oligonucleotide, confirmed by polyacrylamide gel electrophoresis (PAGE), was defined as the maximum fluorescence emission possible under saturated cleaving conditions. Emission units were converted to the amount of labeled oligonucleotide used within a procedure, thereby equating labeled oligonucleotide degradation as a function of the emission of fluorescence.
Enediyne antibiotics calicheamicin and esperamicin at varying concentrations (0.31, 0.78, 1.6, 3.2, 15.9, and 31.7 nM) were incubated in 40 mM Tris-HCl (pH 7.5) with 3.2 nM of the calicheamicin-specific labeled molecular break light oligonucleotide (A). DNA cleavage was initiated with the addition of 1 μL 100 mM dithiothreitol (“DTT”) to produce a final concentration of 50 μM DTT, and the reaction was monitored over 10 minutes via spectrofluorometry.
Pseudo-first order kinetic parameters were utilized to determine the initial velocities at each given enediyne concentration. Specifically, graphical representation of the data was based upon equation 2 where [A]t is the concentration of cleaved oligonucleotide at a given time (t) and [A]0 is the initial concentration of oligonucleotide in the assay. Least squares analysis gave the slope (k), or rate, which was converted to V by the relationship in equation 3. The maximum velocity achieved (Vmax) was then selected from the range of concentrations examined.
ln[A]t=−kt+ln[A]0 [Equation 2]
Bleomycin, an Fe^+2-dependent nucleic acid cleavage agent, is a natural metabolite from Streptomyces verticillus. Blenoxane (a mixture containing approximately 70% bleomycin A2 and 30% bleomycin B2) was dissolved in water & optically standardized (ε291=1.7×10^4M^−1 cm^−1). Bleomycin mediated cleavage was adapted from procedures outlined by Giloni et al. J. Biol. Chem. 256: 8608-8615 (1981). Several different concentrations of bleomycin (200 nM, 100 nM, 50 nM, 25 nM, 12.5 nM, 5 nM, and 2.5 nM) were incubated in 50 mM sodium phosphate, 2.5 mM ascorbate, at pH 7.5 and 37° C. with 3.2 nM of the molecular break light A.
The reaction was initiated by the addition of 65 mM Fe(II) and monitored over 5 minutes. This protocol was repeated with the addition of 5 mM sodium ascorbate to the above conditions. Pseudo-first order kinetic parameters were utilized to determine the initial velocities at each given bleomycin concentration as previously described.
In a first assay, 3.2 nM break light A was incubated in 40 mM Tris HCl and 2.5 mM ascorbate at 37° C. and pH 7.5. Cleavage was initiated by addition of MPE/Fe(II) in a 1.2:1 molar ratio to various concentrations. Final Fe(II) concentrations were 8 μM, 4 μM, 2 μM, 1 μM, 500 nM, 250 nM, and 125 nM.
In a second assay, 32 nM molecular break light A was incubated in 40 mM Tris and 2.5 mM sodium ascorbate at pH 7.5 and 37° C. Cleavage was initiated by addition of MPE/Fe(II) in a 1.2:1 molar ratio to various concentrations. Final Fe(II) concentrations were 50 nM, 125 nM, 250 nM, 500 nM, 1 μM, and 2 μM.
In a third assay, 32 nM break light A (calicheamicin-specific molecular break light oligonucleotide) was incubated in 40 mM Tris and 2.5 mM sodium ascorbate at pH 7.5 and 37° C.

[1] = system: supercoiled pBlusecript plasmid DNA; test: Calicheamicin-induced cleavage of supercoiled plasmid DNA, protection by CalC (agarose gel)
Protocol: Prevention of cleavage by calicheamicin—protection by CalC was assessed. […] To test this theory, preliminary assays were performed with supercoiled pBlusecript plasmid DNA (“pBS”) as the template, and dithiothreitol (“DTT”) as the reductive initiator. […] Then 2.5 μL 10 mM DTT stock solution was added to the assay solution, and the assay was incubated an additional 1 hour at 37° C. DNA fragmentation was assessed by electrophoresis on a 1% agarose gel stained with ethidium bromide.
To test this theory, assays were performed with supercoiled pblusecript plasmid DNA (“pBS”) as the template, and dithiothreitol (“DTT”) as the reductive initiator. […] 2.5 μL 10 mM DTT stock solution was added to the assay solution, and the assay was incubated an additional 1 hour at 37° C.
DNA fragmentation was assessed by electrophoresis on a 1% agarose gel stained with ethidium bromide.

break light B = test: Calicheamicin cleavage of break light B; conditions: calicheamicin with DTT

CCN[C@H]1CO[C@@H](O[C@H]2[C@H](O[C@H]3C#C/C=C/C#C[C@@]4(O)CC(=O)C(NC(=O)OC)=C3/C4=C\CSSSC)O[C@H](C)[C@@H](NO[C@H]3C[C@H](O)[C@H](SC(=O)c4c(C)c(I)c(O[C@@H]5O[C@@H](C)[C@H](O)[C@@H](OC)[C@H]5O)c(OC)c4OC)[C@@H](C)O3)[C@@H]2O)C[C@@H]1OC [Calicheamicinγ1^l, calicheamicin γ1^I]
detection of agent by the assay (sensitivity range) (break light A; 3.2 nM break light A, conditions described): pM range
maximum fluorescence upon cleavage, compared with DNaseI (break light A; 3.2 nM break light A, excess DTT): identical to that observed with DNaseI
Turnover (Vmax/[Agent]) (break light A; [DNA]total = 3.2 nM): 0.007 s⁻¹
Vmax (break light A; [DNA]total = 3.2 nM, 37° C.): 0.011 ± 0.002^d nM sec^−1
Comparison to EDTA (fold enhancement over EDTA turnover) (break light A; [DNA]total = 3.2 nM, MPE as common agent): 4.8 × 10^5 fold
enhancement of cleavage efficiency over bleomycin (break light A; from Table 1): ~10 fold
DNA cleavage ([1]; calicheamicin in the absence of DTT (lane a)): no DNA cleavage
DNA cleavage ([1]; presence of DTT and calicheamicin (lane c)): efficient cleavage
rate of cleavage of break light B compared with break light A (break light B): rate identical to that of break light A
